In patent publication US9969677B2, “Histone acetyltransferase modulators and uses thereof” (THE TRUSTEES OF COLUMBIA UNIVERSITY IN THE CITY OF NEW YORK, priority 2010, dated 2018):

How the values were obtained:
p300 = biological target: T1, p300 (Homo sapiens, UniProt Q09472); assay: acetyltransferase activity assay (Enzo Life Sciences), P300; format: biochemical; conditions: for EC50: Table 1, activation of P300 according to b440
T1 construct: the catalytic domain of human CBP, PCAF, p300 and GCN5 (Enzo Life Sci., USA) can be used; purchased Enzo Life Sciences
T1 sequence (Q09472 1287-1663 limits assumed): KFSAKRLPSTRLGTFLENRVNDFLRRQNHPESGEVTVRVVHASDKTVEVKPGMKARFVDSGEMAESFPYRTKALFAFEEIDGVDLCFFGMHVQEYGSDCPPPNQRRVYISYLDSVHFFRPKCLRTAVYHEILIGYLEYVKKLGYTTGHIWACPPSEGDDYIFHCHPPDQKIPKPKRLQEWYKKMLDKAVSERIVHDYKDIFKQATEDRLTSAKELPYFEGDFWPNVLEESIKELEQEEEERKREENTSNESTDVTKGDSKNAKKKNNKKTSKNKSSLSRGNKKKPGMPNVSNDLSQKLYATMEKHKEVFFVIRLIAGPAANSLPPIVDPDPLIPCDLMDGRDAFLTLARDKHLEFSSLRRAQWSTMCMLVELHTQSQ
Method: (§1) Commercial human HATs (CBP, p300, GCN5, PCAF (Enzo Life Sciences), and Tip60 (SignalChem)) were assayed in an acetyltransferase activity assay (Enzo Life Sciences, Cat. No. ADI-907-026). Each well contained, in addition to a HAT, histone 3 as the acetyl acceptor, acetyl-CoA as the acetyl donor in the reaction mixture and compounds (1% DMSO) at the appropriate concentrations. The reaction was carried out at room temperature. Enzyme activity was measured by monitoring the breakage of the substrate acetyl-CoA by HAT using a proprietary detection mixture. The fluorescent signal was measured using a Tecan microplate reader (excitation: 380 nm, emission: 520 nm). The assay methodology was adopted as it provided a 10-fold higher signal/background ratio and was more sensitive than other assays. […] Compound 10 had no effect with either P300 or CBP (FIG. 13).

[1] = in vivo; cited from earlier work
CBP = biological target: T2, CBP (Homo sapiens, UniProt Q92793); assay: acetyltransferase activity assay (Enzo Life Sciences), CBP; format: biochemical
T2 construct: the catalytic domain of human CBP, PCAF, p300 and GCN5 (Enzo Life Sci., USA) can be used; purchased Enzo Life Sciences
T2 sequence (Q92793 1323-1700 limits assumed): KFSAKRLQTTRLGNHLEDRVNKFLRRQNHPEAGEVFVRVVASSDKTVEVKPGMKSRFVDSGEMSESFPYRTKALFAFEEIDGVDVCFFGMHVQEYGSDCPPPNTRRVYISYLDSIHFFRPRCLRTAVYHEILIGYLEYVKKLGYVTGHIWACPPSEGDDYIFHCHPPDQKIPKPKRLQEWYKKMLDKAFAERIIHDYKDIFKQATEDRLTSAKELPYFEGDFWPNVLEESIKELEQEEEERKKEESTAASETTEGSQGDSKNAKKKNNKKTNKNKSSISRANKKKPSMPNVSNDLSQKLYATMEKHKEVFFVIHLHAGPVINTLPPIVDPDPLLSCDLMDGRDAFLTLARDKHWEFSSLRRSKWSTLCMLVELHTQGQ
Method: as §1

APP/PS1 mouse [2] = conditions: APP/PS1 double transgenic mouse; cited from earlier work
APP/PS1 mouse [3] = conditions: APP/PS1 double transgenic mouse; cited from earlier work; remark: listed apart in the source
[4] = cited from earlier work
[5] = cited from earlier work; remark: listed apart in the source
[6] = tested on: PC12 cells, sympathetic neurons and hippocampal neurons; conditions: cited from earlier work
[7] = in vivo; cited from earlier work; remark: listed apart in the source
histone acetylation = conditions: cited from earlier work
[8] = cited from earlier work; remark: listed apart in the source
Tip60 = biological target: T3, Tip60 (Homo sapiens, UniProt Q92993); assay: acetyltransferase activity assay (Enzo Life Sciences), Tip60; format: biochemical; conditions: histone 3 acetyl acceptor, acetyl-CoA, room temperature
T3 construct: purchased SignalChem
T3 sequence (Q92993 whole entry): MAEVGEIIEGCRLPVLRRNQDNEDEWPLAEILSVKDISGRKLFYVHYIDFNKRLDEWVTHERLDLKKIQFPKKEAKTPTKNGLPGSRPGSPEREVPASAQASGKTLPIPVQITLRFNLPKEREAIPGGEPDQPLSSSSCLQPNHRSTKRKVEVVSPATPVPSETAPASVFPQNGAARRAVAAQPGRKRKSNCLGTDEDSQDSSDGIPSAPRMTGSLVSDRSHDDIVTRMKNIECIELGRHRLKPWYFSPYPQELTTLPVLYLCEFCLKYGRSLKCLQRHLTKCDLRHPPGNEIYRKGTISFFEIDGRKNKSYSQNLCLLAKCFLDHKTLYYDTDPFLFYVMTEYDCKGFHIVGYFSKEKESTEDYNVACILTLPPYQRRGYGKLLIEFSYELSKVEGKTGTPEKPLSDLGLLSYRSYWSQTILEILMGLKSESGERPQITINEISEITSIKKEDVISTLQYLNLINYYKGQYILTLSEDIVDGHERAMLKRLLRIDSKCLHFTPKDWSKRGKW
Method: as §1

[9] = tested on: Aβ-induced reduction of LTP; assay: rescue of Aβ-induced reduction of LTP
From the text: Synaptic dysfunction is a major hallmark of AD (Histol Histopathol, 1995. 10(2): p. 509-19; herein incorporated by reference in its entirety). An aspect of the drug screening protocol can include a measurement of the effect of compounds onto synaptic function. The APP/PS1 mouse presents an impairment of LTP by the age of 3 months (Ann Neurol, 2004. 55(6): p. 801-14; herein incorporated by reference in its entirety), and therefore permits a relatively fast assessment of synaptic function without waiting a long time for mice aging. LTP can be examined because it is a type of synaptic plasticity thought to underlie learning and memory. D rescues the Aβ-induced reduction of LTP, and other compounds can also be screened to identify those that can re-establish normal LTP. The compounds can be applied for 30 min. Controls can be performed on slices from APP/PS1 mice treated with vehicle, and WT mice treated with compound or vehicle. If the compounds re-establish normal LTP in APP/PS1 slices, one can conclude that the compounds rescue impairment of synaptic plasticity in APP/PS1 mice. Cognitive impairment can also be investigated (see Example 5).

Compound: CCOc1cccc(OCCN2CCCCC2)c1C(=O)Nc1ccc(Cl)c(C(F)(F)F)c1 [Compound 8, N-[4-chloro-3-(trifluoromethyl)phenyl]-2-ethoxy-6-[2-(piperidin-1-yl)ethoxy] benzamide]
- EC50 (p300): 2.75 nM

Compound: CCOc1cccc(OCCN(CC)CC)c1C(=O)Nc1ccc(Cl)c(C(F)(F)F)c1 [Compound 12, N-(4-chloro-3-(trifluoromethyl)phenyl)-2-(2-(diethylamino)ethoxy)-6-ethoxybenzamide]
- EC50 (p300): 1.47 nM

Compound: Cc1cc(-c2ccccc2)nnc1NCCN1CCOCC1 [minaprine]
- brain/blood ratio [1]: > 2

Compound: CCOc1cccc(O)c1C(=O)Nc1ccc(Cl)c(C(F)(F)F)c1 [Compound 25, N-[4-chloro-3-(trifluoromethyl)phenyl]-2-ethoxy-6-hydroxybenzamide]
- effect on CBP, initial screening (FIG. 13) (CBP): activated only CBP

Compound: CCOc1cccc(OCCN2CCNCC2)c1C(=O)Nc1ccc(Cl)c(C(F)(F)F)c1 [Compound 10, N-[4-chloro-3-(trifluoromethyl)phenyl]-2-ethoxy-6-[2-(piperazin-1-yl)ethoxy]benzamide]
- effect on CBP, initial screening (FIG. 13) (CBP): no effect
- EC50 (p300): 2.1 nM
- effect on P300, initial screening (FIG. 13) (p300): no effect

Compound: COc1ccc(C2CNC(=O)C2)cc1OC1CCCC1 (stereo not shown) [rolipram]
- contextual fear conditioning (FC) / contextual learning (APP/PS1 mouse [2]): ameliorates deficits
- LTP (APP/PS1 mouse [3]): ameliorates deficits

Compound: CCOc1cccc(OCCN(C)C)c1/C=N/c1ccc(Cl)c(C(F)(F)F)c1 [Compound 17, 4-chloro-N-[2-(2-(dimethylamino)ethoxy)-6-ethoxybenzylidene]-3-(trifluoromethyl)aniline]
- effect on CBP, initial screening (FIG. 13) (CBP): activated only CBP

Compound: CCOc1cccc(OCCCN(C)C)c1C(=O)Nc1ccc(Cl)c(C(F)(F)F)c1 [Compound 13, N-[4-chloro-3-(trifluoromethyl)phenyl]-2-[3-(dimethylamino)propoxy]-6-ethoxybenzamide]
- EC50 (p300): 1.32 nM

Compound: CC(/C=C/C(=O)NO)=C\[C@@H](C)C(=O)c1ccc(N(C)C)cc1 [TSA]
- contextual fear conditioning (FC) / contextual learning (APP/PS1 mouse [2]): ameliorates
- LTP (APP/PS1 mouse [3]): ameliorates

Compound: CCCCCCCCCCCCCCCc1cccc(OCC)c1C(=O)Nc1ccc(Cl)c(C(F)(F)F)c1 [CTPB]
- solubility [4]: insoluble
- membrane permeability [5]: membrane-impermeable

Compound: CC(C)(SN=O)[C@H](N)C(=O)O [S-nitroso penicillamine]
- protection against Aβ-induced neurotoxicity [6]: exerts a neuroprotective effect

Compound: CCOc1ccc(OCCN(C)C)c(C(=O)Nc2ccc(Cl)c(C(F)(F)F)c2)c1 [Compound 18, N-(4-chloro-3-(trifluoromethyl)phenyl)-2-(2-(dimethylamino)ethoxy)-5-ethoxybenzamide]
- effect on CBP, initial screening (FIG. 13) (CBP): activated only CBP
- EC50 (p300): 2.3 nM

Compound: CCOc1cccc(OCCN(C)C)c1C(=O)Nc1ccc(Cl)c(C(F)(F)F)c1 [Compound D, N-[4-chloro-3-(trifluoromethyl)phenyl]-2-[2-(dimethyl-amino)ethoxy]-6-ethoxybenzamide]
- safety in acute toxicity tests [7]: safe
- histone acetylation (histone acetylation): increases histone acetylation
- solubility [4]: soluble
- EC50 (CBP; histone 3 acetyl acceptor, acetyl-CoA, room temperature): 4.5 nM
- membrane permeability [5]: membrane permeable
- EC50 (p300): 3.81 nM
- BBB permeability [8]: BBB permeant
- EC50 (Tip60): > 200000 nM
- Aβ-induced reduction of LTP [9]: rescues

Compound: CCOc1cccc(OCCN2CCN(C)CC2)c1C(=O)Nc1ccc(Cl)c(C(F)(F)F)c1 [Compound 11, N-[4-chloro-3-(trifluoromethyl)phenyl]-2-ethoxy-6-[2-(4-methylpiperazin-1-yl)ethoxy]benzamide]
- effect on CBP, initial screening (FIG. 13) (CBP): no effect
- EC50 (p300): 2.28 nM
- effect on P300, initial screening (FIG. 13) (p300): inhibited

Compound: CCOc1cccc(OCCN(C)C)c1C(=O)NCc1ccc(Cl)c(C(F)(F)F)c1 [Compound 16, N-[4-chloro-3-(trifluoromethyl)benzyl]-2-(2-(dimethylamino)ethoxy)-6-ethoxybenzamide]
- effect on CBP, initial screening (FIG. 13) (CBP): activated only CBP
- EC50 (p300): 1.84 nM

Compound: CCOc1cccc(O)c1CNc1ccc(Cl)c(C(F)(F)F)c1 [Compound 26, 2-[((4-chloro-3-(trifluoromethyl)phenyl)amino)methyl]-3-ethoxyphenol]
- effect on CBP, initial screening (FIG. 13) (CBP): activated only CBP

Compound: CCOc1cccc(OCCN2CCOCC2)c1C(=O)Nc1ccc(Cl)c(C(F)(F)F)c1 [Compound 9, N-[4-chloro-3-(trifluoromethyl)phenyl]-2-ethoxy-6-(2-morpholinoethoxy) benzamide]
- EC50 (p300): 2.07 nM

Compound: CCOc1ccccc1C(=O)Nc1ccc(Cl)c(C(F)(F)F)c1 [CTB]
- solubility [4]: insoluble
- membrane permeability [5]: membrane-impermeable

Compound: CCOc1ccc(C(=O)Nc2ccc(Cl)c(C(F)(F)F)c2)c(OCCN(C)C)c1 [Compound 19, N-(4-chloro-3-(trifluoromethyl)phenyl)-2-(2-(dimethylamino)ethoxy)-4-ethoxybenzamide]
- EC50 (p300): 1.85 nM
